Laboratory results: the supplement of paper PMC10883282

Assays:
Test in all cases: relative viability vs DMSO control (72 h) (fraction); higher = more viable cells
SW982 = system: SW982
Procedure, shortened: (§1)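 Percent growth from ATPLite readings, averaged over up to triplicate wells, was used as relative viability. Sarcoma cell lines were seeded into 384-well plates for 80–90% confluence, dosed after 24 h, and kept 72 h at 37 °C, 5% CO2. Data were rescaled to a range where 1 is full and 0 is none.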

MES-SA = system: MES-SA
Procedure, shortened: as §1

SK-ES-1 = system: SK-ES-1
Procedure, shortened: as §1

A204 = system: A204
Procedure, shortened: as §1

VA-ES-BJ = system: VA-ES-BJ
Procedure, shortened: as §1

CO[C@H]1C[C@@H]2CC[C@@H](C)[C@@](O)(O2)C(=O)C(=O)N2CCCC[C@H]2C(=O)O[C@H]([C@H](C)C[C@@H]2CC[C@@H](O)[C@H](OC)C2)CC(=O)[C@H](C)/C=C(\C)[C@@H](O)[C@@H](OC)C(=O)[C@H](C)C[C@H](C)/C=C/C=C/C=C/1C [Rapamycin]
relative viability
Conditions	A204	MES-SA	SK-ES-1	SW982	VA-ES-BJ
0.00017 µM	0.894	0.876	0.953	0.919	0.942
0.00051 µM	0.707	0.648	0.866	0.86	0.814
0.00152 µM	0.614	0.469	0.737	0.763	0.723
0.00457 µM	0.542	0.424	0.63	0.695	0.584
0.01372 µM	0.513	0.384	0.564	0.634	0.476
0.04115 µM	0.499	0.362	0.554	0.597	0.451
0.1235 µM	0.489	0.363	0.51	0.567	0.435
0.3704 µM	0.464	0.353	0.512	0.603	0.427
1.111 µM	0.453	0.352	0.5	0.586	0.444
3.333 µM	0.425	0.34	0.482	0.597	0.446
10 µM	0.408	0.349	0.457	0.591	0.43

C=CC(=O)Nc1cccc(Nc2nc(Nc3ccc(N4CCN(C(C)=O)CC4)cc3OC)ncc2C(F)(F)F)c1 [Rociletinib]
relative viability
Conditions	A204	MES-SA	SK-ES-1	SW982	VA-ES-BJ
0.00017 µM	1.06	0.95	0.973	1.01	1.04
0.00051 µM	1.08	0.955	1.02	1.05	1.05
0.00152 µM	1.13	0.942	1.03	1.08	1.02
0.00457 µM	1.1	0.957	1.06	1.07	1.03
0.01372 µM	1.12	0.942	1	1.05	0.981
0.04115 µM	1.04	0.944	1.03	1.04	0.991
0.1235 µM	1.11	0.926	1.02	1.04	0.994
0.3704 µM	1.08	0.9383	0.943	1.05	0.972
1.111 µM	1.03	0.765	0.658	0.911	0.915
3.333 µM	0.589	0.329	0.232	0.6095	0.648
10 µM	0.302	0.193	0.0621	0.265	0.399

CN(C)C[C@@H]1CCn2cc(c3ccccc32)C2=C(C(=O)NC2=O)c2cn(c3ccccc23)CCO1 [Ruboxistaurin]
relative viability
Conditions	A204	MES-SA	SK-ES-1	SW982	VA-ES-BJ
0.00017 µM	1.08	0.918	1.03	1.03	0.988
0.00051 µM	1.07	0.909	1.06	1.03	0.999
0.00152 µM	1.08	0.9276	1.07	1.04	0.984
0.00457 µM	1.06	0.9006	1.08	1.03	0.988
0.01372 µM	1.06	0.923	1.07	1.05	0.982
0.04115 µM	1.08	0.91	1.02	1.04	0.996
0.1235 µM	1.03	0.898	1.01	1.04	0.9734
0.3704 µM	1.05	0.887	0.963	1.03	0.945
1.111 µM	0.881	0.84	0.869	0.949	0.861
3.333 µM	0.808	0.7551	0.74	0.846	0.825
10 µM	0.0478	0.428	0.421	0.349	0.651

CN1CCN(CCOc2cc(OC3CCOCC3)c3c(Nc4c(Cl)ccc5c4OCO5)ncnc3c2)CC1 [Saracatinib]
relative viability
Conditions	A204	MES-SA	SK-ES-1	SW982	VA-ES-BJ
0.00017 µM	1.03	0.934	0.989	1.02	1.05
0.00051 µM	1.05	0.933	1.05	1.09	1.07
0.00152 µM	1.06	0.936	1.04	1.05	1.07
0.00457 µM	1.06	0.94	1.01	1.06	1.11
0.01372 µM	1.04	0.959	1.04	1.08	1.11
0.04115 µM	1.01	0.923	1.01	1.08	1.14
0.1235 µM	0.992	0.943	0.968	0.919	1.14
0.3704 µM	0.963	0.925	0.951	0.739	1.12
1.111 µM	0.882	0.837	0.903	0.568	0.941
3.333 µM	0.679	0.692	0.81	0.486	0.805
10 µM	0.468	0.622	0.604	0.442	0.681
